Assay results: patent publication US20180209956A1, “HTS Assay for Identifying Small Molecule Inhibitors of RAD52 and Uses of Identified Small Molecule Inhibitors for Treatment and Prevention of BRCA-Deficient Malignancies” (University of Iowa Research Foundation, priority 2015, published 2018)
Like-named read-outs stand apart in the source and are kept apart here.

Biological target: T1, RAD52-ssDNA interaction (Homo sapiens, UniProt P43351)
T1 construct: made in house
T1 sequence (P43351 1-418): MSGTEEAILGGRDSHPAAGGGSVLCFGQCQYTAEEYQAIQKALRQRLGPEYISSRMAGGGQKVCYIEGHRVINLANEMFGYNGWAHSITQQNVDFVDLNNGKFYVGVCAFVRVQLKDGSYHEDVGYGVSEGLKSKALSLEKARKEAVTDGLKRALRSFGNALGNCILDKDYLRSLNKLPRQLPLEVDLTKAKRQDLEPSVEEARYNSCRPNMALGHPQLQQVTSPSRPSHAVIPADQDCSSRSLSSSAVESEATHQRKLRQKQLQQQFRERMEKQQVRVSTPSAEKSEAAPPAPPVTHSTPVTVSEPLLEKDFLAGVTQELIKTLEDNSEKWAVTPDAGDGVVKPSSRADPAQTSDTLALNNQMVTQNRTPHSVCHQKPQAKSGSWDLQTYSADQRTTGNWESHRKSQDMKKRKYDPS
Experiment: FRET-based ssDNA binding and wrapping assay (RAD52-Cy3-dT30-Cy5 complex)
Conditions: for IC50: read-out: IC50 (DNA binding); for IC50 range for ssDNA binding and wrapping, in words: summary of Table 1
Procedure: We titrated increasing amounts of each compound into a cuvette containing preformed stoichiometric RAD52-Cy3-dT30-Cy5 complexes (1 nM Cy3-dT30-Cy5 and 8 nM RAD52). […] At each concentration of the compound, the FRET signal was adjusted for the change in Cy3 and Cy5 fluorescence in the presence of the compound, but in the absence of protein.
FRET-based DNA binding and annealing assays: FRET-based ssDNA binding, dsDNA binding, and annealing assays were carried out as previously described (Grimme et al., 2010, Grimme and Spies, 2011) using Cary Eclipse spectrofluorimeter (Varian) at 25° C. in buffer containing 30 mM Tris-Acetate pH7.5, 1 mM DTT, and 0.1 mg/mL BSA. Cy3 dye was excited at 530 nm and its emission was monitored at 565 nm. Emission of Cy5 acceptor fluorophore excited through the energy transfer from Cy3 donor is monitored at 660 nm simultaneously with emission of Cy3 dye. Both the excitation and the emission slit widths were set to 10 nm.
All experiments were performed in triplicates, and the data are shown as averages and standard deviations for three independent measurements. To remove possible experimental artifacts associated with chromogenic or fluorogenic compounds, as well as with the compounds that may quench or enhance Cy3 or Cy5 fluorescence, we also performed control titrations whereby we titrated each compound into 1 nM Cy3-dT30-Cy5 in the absence of RAD52. For each compound concentration we subtracted the difference in the FRET signal in the presence and absence of the compound from the respective FRET signal in the presence of RAD52. The FRET signal corrected for the compound fluorescence was calculated using the equation: […]
as previously described (Grimme et al., 2010, Grimme and Spies, 2011) and plotted as a function of compound concentration and fitted to the following inhibition model”
where FRET0 is the initial FRET value of RAD52-ssDNA complex in the absence of the compound and FRETmin is the FRET value at complete inhibition. FRET values were calculated as an average of three or more independent annealing reactions plotted against the concentration of the compound. Inhibition of the RAD52-dsDNA interaction was assayed in a similar experiment, except the stoichiometric complexes containing 1 nM molecules of Cy3-Oligo28-Cy5 duplex DNA and 10 nM RAD52. […] In all experiments, the FRET values for each data point were corrected for the effects of the compounds on the respective substrate in the absence of RAD52.

[1] = Table 1, ssDNA, 1 nM Cy3-dT30-Cy5, 8 nM RAD52
[2] = Table 2, methods similar to Example 1

FRET value at saturation (Table 2) | IC50 [2] | Molecule | also measured
 |  | Oc1cc(O)c2c(c1)O[C@H](c1ccc(O)c(O)c1)[C@H](O)C2 [Compound 7, (−)-Epicatechin] | FRET value at saturation (Table 1): 0.51 ± 0.01; IC50 [1]: 1450 ± 110 nM; IC50 range for ssDNA binding and wrapping, in words: micro-molar range
 |  | NCCc1cc(O)c(O)cc1O [Compound 14, Oxidopamine] | FRET value at saturation (Table 1): 0.50 ± 0.01; IC50 [1]: 779 ± 51 nM; IC50 range for ssDNA binding and wrapping, in words: nano-molar range
 |  | COc1cc(N)c(Cl)cc1C(=O)N[C@H]1CCN(CCCOc2ccc(F)cc2)C[C@H]1OC [Compound 16, Cisapride Monohydrate, reference compound] | FRET value at saturation (Table 1): 0.50 ± 0.01
 |  | CC1(C)C(=O)C=C[C@@]2(C)C1=C(O)C(=O)[C@]1(C)[C@@H]2CC[C@@]2(C)[C@H](c3ccoc3)C[C@H]3O[C@]321 [Compound 17, Cedrelone] | IC50 [1]: > 300000 nM; IC50 range for ssDNA binding and wrapping, in words: high micro-molar range
0.49 ± 0.01 | 938 ± 12 nM | Cc1ccc2c(c1)C(=O)CC(O)(C(F)(F)F)O2 (stereo not shown) [Compound R20, 2-hydroxy-6-methyl-2-(trifluoromethyl)-2,3-dihydro-4H-chromen-4-one] | 
0.483 ± 0.01 | 76000 ± 5570 nM | O/N=C1/CC(O)(C(F)(F)F)Oc2ccccc21 (stereo not shown) [Compound R21, 2-hydroxy-2-(trifluoromethyl)-2,3-dihydro-4H-chromen-4-one oxime] | 
0.49 ± 0.01 | 184000 ± 12000 nM | CC1(C)COC(O)(C(F)(F)F)CC1=O (stereo not shown) [Compound R22, 2-hydroxy-5,5-dimethyl-2-(trifluoromethyl)tetrahydro-4H-pyran-one] | 
0.39 ± 0.01 | 84100 ± 1040 nM | CC(O)CC1(O)C(=O)N(C)c2ccccc21 (stereo not shown) [Compound R23, 3-hydroxy-3-(2-hydroxypropyl)-1-methyl-1,3-dihydro-2H-indol-2-one] | 
 |  | CC(C)(O)C1Cc2cc3ccc(=O)oc3cc2O1 (stereo not shown) [Compound R24, 2-(1-hydroxy-1methylethyl)-2,3-dihydro-7H-furo[3,2-g]crhomen-7-one] | IC50 (DNA binding) [2]: No inhibition
0.45 ± 0.01 | 1600 ± 150 nM | c1ccc(CSc2nnc3c(n2)OC(c2ccc4c(c2)OCO4)Nc2ccccc2-3)cc1 (stereo not shown) [Compound R25, 6-(1,3-benzodioxol-5-yl)-3-(benzylthio)-6,7-dihydro[1,2,4]triazino[5,6-d][3,1]benzoxazepine] | 
0.46 ± 0.01 | 1900 ± 500 nM | CCOc1ccc(C2Nc3ccccc3-c3nnc(SCc4ccccc4)nc3O2)cc1 (stereo not shown) [Compound R26, 3-(benzylthio)-6-(4-ethoxyphenyl)-6,7-dihydro[1,24]triazino[5,6-d][3,1]benzoxazepine] | 
0.59 ± 0.01 | 1300 ± 190 nM | COc1cc(C2C(C(=O)OCC3CCCO3)=C(C)NC3=C2C(=O)CC(C)(C)C3)ccc1O (stereo not shown) [Compound R30, Tetrahydro-2-furanylmethyl 4-(4-hydroxy-3-methoxyphenyl)-2,7,7-trimethyl-5oxo-1,4,5,6,7,8-hexahydro-3-quinolinecarboxylate] | 
0.45 ± 0.01 | 1250 ± 340 nM | COc1ccc(C(=O)Nc2ccccc2C(=O)NC(C(=O)Nc2ccccc2)C(C)C)cc1 (stereo not shown) [Compound R32, N-[1-(anilinocarbonyl)-2-methylpropyl]-2-[(4-methoxybenzoyl)amino]benzamide] | 
0.56 ± 0.01 | 849 ± 210 nM | COc1cc(/C=N/NC(=O)CCC(C)O)ccc1O (stereo not shown) [Compound R33, 4-hydroxy-N′-(4-hydroxy-3-methoxybenzyliden)pentanohydrazide] | 
 |  | Rolitetracycline [Compound ‘4’, reference compound] | FRET value at saturation (Table 1): 0.56 ± 0.04; IC50 [1]: 29000 ± 8200 nM; IC50 range for ssDNA binding and wrapping, in words: mid micro-molar range
